Tests used:
[1] = system: LDL; assay: LDL oxidation by copper, conjugated diene formation (OD 234 nm); assay type: biochemical; details: for decrease in the maximum amount of conjugated dienes formed: copper alone 496 nmol per mg of LDL, FIG. 2c; for rate of conjugated diene formation (LDL oxidation rate): copper alone 3, FIG. 2b; for increase in the lag phase: relative to copper alone; for increase in the lag phase / lag phase for conjugated diene formation: FIG. 2a; for lag phase for conjugated diene formation: copper alone 104 minutes
Description: LDL were prepared as described in Lebeau et al. (Lebeau, Furman et al. 2000). The solutions of the test compounds were prepared at 10^−2 M in ethanol and diluted in PBS so that the final concentration ranged from 0.1 to 100 μM with a total ethanol concentration of 1% (V/V).
Before oxidation, EDTA was removed from the LDL preparation by dialysis. The oxidation reaction was then carried out at 30° C. by adding 100 μl of 16.6 μM CuSO4 or 2 mM MPH to 800 μl of LDL (125 μg protein/ml) and 100 μl of a test compound solution. The formation of dienes, the species to be followed, was measured by the optical density at 234 nm in the samples treated with the compounds in the presence or absence of copper (or MPH). Optical density at 234 nm was measured every 10 minutes for 8 hours on a thermostated spectrophotometer (Kontron Uvikon 930). The analyses were carried out in triplicate. A compound was considered to have antioxidant activity when it shifted the lag phase latency relative to the control sample. […] FIG. 2 presents an example of the results obtained with the inventive compounds.

[2] = target: T1, hPPARα (Gal4/PPARα chimera) (Homo sapiens, UniProt Q07869); assay: Gal4/PPARα transactivation system in HepG2 cells (luciferase); assay type: cell-based; details: HepG2, 24 h, PC liposomes, FIG. 3
T1 construct: expressed in transfected cells; host or cells: HepG2
T1 sequence (Q07869 239-466 limits assumed): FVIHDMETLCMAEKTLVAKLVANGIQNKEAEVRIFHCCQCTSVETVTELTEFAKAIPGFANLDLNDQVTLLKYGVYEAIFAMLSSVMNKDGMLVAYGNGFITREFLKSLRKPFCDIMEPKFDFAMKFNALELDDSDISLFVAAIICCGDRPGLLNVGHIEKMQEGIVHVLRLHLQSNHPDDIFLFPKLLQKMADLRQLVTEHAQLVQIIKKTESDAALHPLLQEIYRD
Description: PPAR activation was tested in vitro in RK13 fibroblast cell lines or in a […] line HepG2 by measuring the transcriptional activity of chimeras composed of the DNA binding domain of the yeast gal4 transcription factor and the ligand binding domain of the different PPARs. The example below is given for HepG2 cells.
HepG2 cells were from ECACC (Porton Down, UK) and were grown in DMEM medium supplemented with 10% (V/V) fetal calf serum, 100 U/ml penicillin (Gibco, Paisley, UK) and 2 mM L-glutamine (Gibco, Paisley, UK). The culture medium was changed every two days. Cells were kept at 37° C. in a humidified 95% air/5% CO2 atmosphere.
The plasmids pG5TkpGL3, pRL-CMV, pGal4-hPPARα, pGal4-hPPARγ and pGal4-f have been described by Raspe et al. (Raspe, Madsen et al. 1999). The pGal4-mPPARα and pGal4-hPPARβ constructs were obtained by cloning PCR-amplified DNA fragments corresponding to the DEF domains of the mouse PPARα and human PPARβ nuclear receptors, respectively, into the pGal4-f vector.
HepG2 cells were seeded in 24-well culture dishes at 5×10^4 cells/well and transfected for 2 hours with the reporter plasmid pG5TkpGL3 (50 ng/well), the expression vectors pGal4-f, pGal4-mPPARα, pGal4-hPPARα, pGal4-hPPARγ, pGal4-hPPAβ (100 ng/well) and the transfection efficiency control vector pRL-CMV (1 ng/well) according to the previously described protocol (Raspe, Madsen et al. 1999), then incubated for 36 hours with the test compounds. At the end of the experiment, the cells were lysed (Gibco, Paisley, UK) and luciferase activity was determined with a Dual-Luciferase™ Reporter Assay System kit (Promega, Madison, Wis., USA) according to the supplier's instructions. The protein content of the cell extracts was then measured with the Bio-Rad Protein Assay (Bio-Rad, Munich, Germany) as directed by the supplier.
FIG. 3: HepG2 cells transfected with Gal4/PPARα plasmids were incubated with different concentrations of inventive compounds (5, 15, 50 and 100 μM) for 24 h and with different concentrations of the vehicle (PC). The results are expressed as the induction factor (luminescent signal relative to untreated cells) after the different treatments. […] The induction factors for compound Ex 4p were 35 at 100 μM, 44 at 50 μM, 36 at 15 μM and 24 at 5 μM. In contrast, when the cells were incubated with the vehicle (PC liposome), no significant induction was observed.

[3] = system: ischemia induced by occlusion of the middle cerebral artery; assay: Cerebral ischemia-reperfusion model, prophylactic treatment, brain infarct volume; assay type: in vivo, Wistar rats
Description: (§1) Wistar rats weighing 200 to 350 g were used for this experiment. Animals were treated by gavage with the inventive compounds (600 mg/kg/day) in suspension in the vehicle (0.5% carboxycellulose (CMC) and 0.1% Tween) or with the vehicle alone, for 14 days before ischemia induction by occlusion of the middle cerebral artery. Animals were anesthetized by intraperitoneal injection of 300 mg/kg chloral hydrate. A rectal probe was inserted and body temperature was maintained at 37° C.±0.5° C. Blood pressure was monitored throughout the experiment. Under a surgical microscope, the right carotid artery was exposed by a median incision in the neck. The pterygopalatine artery was ligated at its origin and an arteriotomy was fashioned in the external carotid artery so as to insert a nylon monofilament, which was gently advanced to the common carotid artery and then into the internal carotid artery so as to occlude the origin of the middle cerebral artery. The filament was withdrawn one hour later to allow reperfusion. Twenty-four hours after reperfusion, animals previously treated or not with the inventive compounds were euthanized by pentobarbital overdose. Brains were rapidly frozen and sliced. Sections were stained with cresyl violet. Unstained zones of the brain sections were considered to be damaged by the infarct. Areas (of the infarct and the two hemispheres) were measured and the volume of the infarct and the two hemispheres was calculated and the corrected infarct volume was determined by the following formula: (corrected infarct volume=infarct volume−(volume of right hemisphere−volume of left hemisphere)) to compensate for cerebral oedema.

[4] = system: ischemia induced by occlusion of the middle cerebral artery; assay: Cerebral ischemia-reperfusion model, curative or acute phase treatment, brain infarct volume; assay type: in vivo, Wistar rats
Description: as §1, with “Animals such as those described previously” for “Wistar rats weighing 200 to 350 g”, “experiment.” for “experiment. Animals were treated by gavage with the inventive compounds (600 mg/kg/day) in suspension in the vehicle (0.5% carboxycellulose (CMC) and 0.1% Tween) or with the vehicle alone, for 14 days before ischemia induction by occlusion of the middle cerebral artery.”, “Animals first subjected to ischemia-reperfusion were treated with the inventive compounds by the oral route (such as previously described in CMC+Tween vehicle) one or more times after reperfusion (600 mg/kg/day or 300 mg/kg/day bid). 24, 48 or 72” for “Twenty-four”, “the” for “the inventive”, “measured,” for “measured and”

[5] = prophylactic treatment, FIG. 4b

Compound | decrease in the maximum amount of conjugated dienes formed ([1]; compound at 10^-4 M) [%] | rate of conjugated diene formation (LDL oxidation rate) ([1]; compound at 10^-4 M) | increase in the lag phase [1] [%] | effect on the LDL oxidation rate (in words) ([1]; FIG. 2b) | induction factor (luminescent signal relative to untreated cells) ([2]; 5 μM) [fold] | induction factor (luminescent signal relative to untreated cells) ([2]; 15 μM) [fold] | induction factor (luminescent signal relative to untreated cells) ([2]; 50 μM) [fold] | induction factor (luminescent signal relative to untreated cells) ([2]; 100 μM) [fold] | other results
1,3-dilinoleyl-2-tetradecylthioacetylglycerol [Ex 4h] | 24 | 2.5 nmol/min/mg of LDL | 43 |  |  |  |  |  | 
CCCCCCCCCCCCCCSCC(=O)OCC(O)CO (stereo not drawn) [Ex 2a, 1-tetradecylthioacetylglycerol] |  |  | 67 | did not significantly alter | 17 | 31 | 41 | 62 | 
CCCCCCCCCCCCCCSCC(=O)OCC(COC(=O)CSCCCCCCCCCCCCCC)OC(=O)CSCCCCCCCCCCCCCC [Ex 4a, 1,2,3-tritetradecylthioacetylglycerol] | 60 | 1 nmol/min/mg of LDL | 160 |  | 9 | 18 | 30 | 41 | decrease in the oxidation rate ([1]; compound at 10^-4 M, FIG. 2b): 66%; lag phase for conjugated diene formation ([1]; compound at 10^-4 M): 270 min; decrease in lesion size relative to control animals ([3]; oral, 300 mg/kg/day bid, 14 days before ischemia, FIG. 4a): 22%; corrected total infarct volume (lesion size) ([3]; oral, 300 mg/kg/day bid, 14 days before ischemia, controls 186 mm^3, FIG. 4a): 145 mm^3; decrease in lesions, cortical infarct (uncorrected infarct volume) [3, 5]: 22%; effect on striatal infarct (uncorrected infarct volume), in words [3, 5]: no significant decrease in lesions; lesions smaller than control animals ([4]; 600 mg/kg/day for 24 hours after ischemia, FIG. 4c): 27%; infarct volume ([4]; 600 mg/kg/day for 24 hours after ischemia, controls 180 mm^3, FIG. 4c): 132 mm^3; lesions smaller than control animals ([4]; 600 mg/kg/day for 72 hours after ischemia, FIG. 4e): 40%; corrected infarct volume ([4]; 600 mg/kg/day for 72 hours after ischemia, controls 180 mm^3, FIG. 4e): 110 mm^3; decrease in lesions, cortical infarct (uncorrected infarct volume) ([4]; acute phase 24 h, FIG. 4d): 25%; effect on striatal infarct (uncorrected infarct volume), in words ([4]; acute phase 24 h, FIG. 4d): no significant decrease in lesions; decrease in lesions, cortical infarct (uncorrected infarct volume) ([4]; acute phase 72 h, FIG. 4f): 32%; decrease in lesions, striatal infarct (uncorrected infarct volume) ([4]; acute phase 72 h, FIG. 4f): 23%
CCCCCCCCCCCCCCCC(=O)OCC(COC(=O)CCCCCCCCCCCCCCC)OC(=O)CSCCCCCCCCCCCCCC [Ex 4g, 1,3-dipalmitoyl-2-tetradecylthioacetylglycerol] | 31 | 1.8 nmol/min/mg of LDL | 170 |  |  |  |  |  | lag phase for conjugated diene formation ([1]; compound at 10^-4 M): 282 min
CCCCCCCCCCCCCCCC(=O)OC(COC(=O)CSCCCCCCCCCCCCCC)COC(=O)CSCCCCCCCCCCCCCC [Ex 4o, 1,3-ditetradecylthioacetyl-2-palmitoylglycerol] |  |  | 37 | did not significantly alter |  |  |  |  | 
CCCCCCCCCCCCCCSCC(=O)OC(COC(C)=O)COC(C)=O [Ex 4p, 1,3-diacetyl-2-tetradecylthioacetylglycerol] |  |  |  |  | 24 | 36 | 44 | 35 | 
CCCCCCCCCCCCCCSCC(=O)OC(COC(=O)CCCCCCC)COC(=O)CCCCCCC [Ex 4q, 1,3-dioctanoyl-2-tetradecylthioacetylglycerol] |  |  | 54 | did not significantly alter |  |  |  |  | 
